Experimental data as given in a melting point compilation (Tetko et al.; mined from patent text by program, amines drawn as free bases though some values may be those of a salt).

Structure (SMILES)	melting point [°C]
CCc1cccc(CC)c1N(CCl)C(=O)c1ccccc1	98 to 99
Cc1cc(C#N)cc(C(=O)Nc2ccc(F)cc2)n1	189
Fc1cccc(F)c1CN[C@H]1CCCN[C@H]1c1ccccc1 (relative stereo)	> 260
O=[N+]([O-])c1cnccc1N1CCc2ccccc21	159 to 160
COc1nc(NC(=S)NS(=O)(=O)c2cccnc2)nc(OC)n1	158 to 160
O=[N+]([O-])c1cc(-c2nc3n(c2Cl)CCCC3)c(Cl)cc1Cl	111 to 112
CN1C(=O)[C@H](NC(=O)C=Cc2ccc(Cl)cc2)N=C(c2ccccc2)c2ccccc21	203 to 205
CC(C)(C)N1CN(C(C)(C)C)C(N)=C2C=NN=C21	158 to 161
COc1ccc2c(=O)cc(-c3n[nH]c4ccccc34)oc2c1	218 to 220
O=c1c2ccccc2nc(-n2ccnc2)n1-c1ccccc1	163 to 165
COc1cc2oc(=O)c(CCO)c(C)c2cc1OC	184 to 187
O=Cc1ccc(CSCCN2C(=O)c3ccccc3C2=O)o1	76 to 77
CC1(C)COC(=O)N1c1nc(-c2ccc(C#N)cc2)c(F)s1	177 to 178
COC(=O)Nc1cccc(CC(=O)NC(C)(C)C)c1	123 to 124
CC(C)CC(=O)N1CCC(c2nc3cc(-c4ccc(-n5cnnn5)cc4F)ccc3o2)CC1	168 to 172
OCCc1nccn1CCCc1cccc(O)c1	111 to 113
Cc1nc2cc3c(cc2c(=O)[nH]1)C(N(C)c1ccc(C(=O)NC(CCC(=O)NC(C(=O)O)c2ccc(CC(=O)O)cc2)C(=O)O)c(F)c1)CC3 (stereo not drawn)	175 to 177
CCCOC(Cc1ccc(OCc2nc(C(C)(C)C)oc2C)c2ccccc12)C(=O)O (stereo not drawn)	169 to 170
COC(=O)c1sc(-c2ccc(F)cc2)cc1-c1nnn(C)n1	132
COc1nc(Cl)cnc1N(C(=O)OCC(C)C)S(=O)(=O)c1ccccc1-c1ccc(OC2CCCCO2)cc1 (stereo not drawn)	142 to 143
COC1CCC2C3CCC4=CC(=O)C(C)CC4(C)C3CCC12C (stereo not drawn)	130 to 145

Structure (SMILES)	melting point [°C]
O=S(=O)(NCCCN1CCC(Oc2ccc(Cl)c(Cl)c2)CC1)c1ccc(-c2ccccn2)s1	115
Nc1n[nH]c(-c2ccco2)n1	204 to 206
CCN(CC)C(=O)CCc1c[nH]c2ccc(Br)cc12	128
CCCCCC(CC(=O)Nc1cc(CCC(=O)NC)ccc1C(C)(C)C)c1c(OC)cccc1OC (stereo not drawn)	111 to 112
CC(=O)Nc1ccc(OC(C)CN2CCN(CCc3ccc(C(=O)O)cc3)CC2)cc1 (stereo not drawn)	234 to 235
CCCC(=O)NN=C(C)c1sc(C)nc1C	124
O=C(c1ccccc1)C1OC1c1ccccc1 (stereo not drawn)	90
CN1C(=O)c2[nH]c3ccccc3c2Oc2ccccc21	247 to 248
CCCOc1cc(C(=O)O)cc(S(N)(=O)=O)c1-c1ccccc1	155 to 157
Cc1cn(COC(COCc2ccccc2)COCc2ccccc2)c(=O)[nH]c1=O	96 to 98
Cc1oc(-c2ccccc2)nc1COc1cncc(COc2cccc(CC(=O)O)c2)c1	143 to 144
Cc1ccnc(C(O)c2sc(NC(=N)N)nc2C)c1 (stereo not drawn)	150 to 152
COc1ccc(CCc2ccncc2NC(=O)c2ccccc2)cc1OC1CCCC1	50 to 51
O=[N+]([O-])c1cccnc1Nc1ccncc1	165 to 167
Cc1cc(C(=O)C=C(c2cc(Cl)cc(Cl)c2)C(F)(F)F)ccc1C(=O)O	123 to 126
Cc1c(C(=O)Nc2ccc(N3CCN(C4CCSCC4)CC3)c(C#N)c2)cnn1-c1ccc(Cl)cc1	281
NS(=O)(=O)c1ccc(-n2nc(C(F)F)cc2-c2nc3cccc(Cl)c3s2)cc1	238 to 239
N#CNC(=Nc1ccncc1)NCCOc1ccccc1	167 to 170
CC1CN(S(C)(=O)=O)Cc2nc3c(N)nc4ccccc4c3n21 (stereo not drawn)	258 to 261
[N-]=[N+]=Nc1ccc(C(=O)OCCOC(=O)CC[C@@H](C(=O)O)n2c3ccccc3c3ccccc32)cc1	70

The remaining lines, values ahead:

melting point [°C]	Structure (SMILES)
153 to 154	Cc1cc(S(=O)(=O)Nc2cccnc2Nc2ccccc2)c(C)cc1Cl
156	Fc1ccc(Nc2nc(N/N=C/c3c(F)cccc3F)nc(N3CCOCC3)n2)cc1
82 to 83	CC(C)COC1C=CC(=O)N1S(=O)(=O)c1ccccc1 (stereo not drawn)
184	O=C1OCCN1c1ccc(NCCO)c([N+](=O)[O-])c1
131 to 132	COc1ccc(-c2cc(-c3ccccc3)[nH]c2C(=O)NCc2ccc(C(=O)NCCS)cc2)cc1
145	CCOc1nc(-c2cccc(Cl)c2)c2cc(C(O)(c3ccc(C(=O)OC(C)C)cc3)c3cncn3C)ccc2n1 (stereo not drawn)
137 to 140	O=C(C(=C1NCCCS1)[N+](=O)[O-])c1ccccc1
182 to 183	CCCCS(=O)(=O)N1CCC(c2ccc(O)cc2O)CC1
201 to 203	COc1cccc2c(=O)c3ccc(SC)cc3oc12
40 to 43	CN1C(=O)C(c2ccc(OC(F)F)cc2)(c2cccc(COCCF)c2)N=C1N (stereo not drawn)
135 to 136	CCN(c1ccc([N+](=O)[O-])cc1C#N)S(=O)(=O)c1ccc(C)cc1
106 to 107	CC(C)n1cc(C2CCC(=O)CC2)c2cc(C#N)ccc21
176 to 180	NNc1ccc(-c2ccc(Cl)cc2)nn1
158 to 159	N#Cc1cc(NC(=O)c2cccn2-c2ccc(F)cc2)ccc1N1CCCCC1
207 to 208	COc1ccc(-c2ccc(C(N)=O)c(Cl)c2)cc1
138 to 140	Cc1cc(-n2nc3ccc(Cl)cc3n2)c(O)c(C(C)(C)C)c1

melting point [°C]	Structure (SMILES)
53 to 68	CCCSC1=Nc2cc(C(=O)O)ccc2SN1Cc1ccc(-c2ccccc2C#N)cc1
193 to 195	COc1cc(OC)c(NC(=O)NC2(c3ccccc3)CCCC2)c(OC)c1
105 to 107	CCOC(=O)CCCCn1c(=O)[nH]c2ccc(OCOCCOC)cc2c1=O
206	O=C1c2cccc([N+](=O)[O-])c2C2CC3(CCN12)OCCO3 (stereo not drawn)
192 to 194	CC(C)CN1CC(O)C(O)C(O)C1CO (stereo not drawn)
251 to 253	CCOC(=O)c1cn(N)c2cc3c(cc2c1=O)OCO3
134	O=c1c(Br)c(OCc2ccccc2)ccn1CCc1ccsc1
158	Cc1cccc(NC(=O)NCC(=O)N(CC(=O)OCC2CC2)c2ccccc2)c1
207 to 208	Cc1noc(NC(=O)N2CCN(c3cc(-c4ccc(F)cc4)ncn3)CC2)c1C
122	COc1ccc(-c2ncn(C)c2-c2ccc(OC)cc2)cc1
> 240	COc1ccc2c(=O)cc(-c3ccc(O)c(O)c3)oc2c1
61 to 63	C=CC1(NC(=O)OC)CC(C)(C)CC(C)(C)C1
170 to 185	O=C(O)c1ccccc1-n1c(-c2ccccc2)cc2c1-c1ccccc1CC2
165 to 166	O=C(NCC(F)(F)F)c1ccccc1C(c1ccc(O)cc1)c1ccc(O)cc1
141	OCCOc1ccc(C2CNCCN2)cc1 (racemic)
160 to 161	CCNC(=O)/C=C/CSc1nc(N)cc(Cl)n1
